Target: T1, human κ opioid receptors (Homo sapiens, UniProt P41145)
T1 construct: host or cells: CHO cells
Test: Opioid receptor function test (Lance Ultra cAMP kit, agonist activity)
Format: cell-based
Details: CHO cells expressing human κ opioid receptors, 10 μM forskolin, 30 minutes
How it was run: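 CHO cells expressing human κ opioid receptor incubated 30 min with test compound (10^−14 to 10^−7 M) and 10 μM forskolin in HSS/5 mM HEPES pH 7.4 with 0.5 mM IBMX and 0.1% SA. cAMP measured by TR-FRET (Lance Ultra) 1 h after detection reagent addition.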

T1 sequence (P41145 whole entry): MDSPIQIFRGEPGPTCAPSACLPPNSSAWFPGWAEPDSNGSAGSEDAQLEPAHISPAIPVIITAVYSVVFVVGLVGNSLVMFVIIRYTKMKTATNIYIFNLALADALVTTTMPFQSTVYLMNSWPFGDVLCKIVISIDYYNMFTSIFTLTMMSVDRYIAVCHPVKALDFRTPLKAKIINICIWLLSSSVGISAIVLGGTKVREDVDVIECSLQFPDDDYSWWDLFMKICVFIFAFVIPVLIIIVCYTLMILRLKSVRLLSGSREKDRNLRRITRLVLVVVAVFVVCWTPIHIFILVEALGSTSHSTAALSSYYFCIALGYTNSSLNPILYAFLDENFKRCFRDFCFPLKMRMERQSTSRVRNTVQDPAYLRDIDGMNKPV

`Cc1cnn(CC(=O)N2CC[C@]34CCN(CC5CC5)[C@H](Cc5cc(C)c(O)cc53)[C@]4(O)CC2)c1` [Example 328, 1-((5aS,6R,11bR)-14-(cyclopropylmethyl)-5a,10-dihydroxy-9-methyl-1,2,5,5a,6,7-hexahydro-6,11b-(epiminoethano)naphtho[1,2-d]azepin-3(4H)-yl)-2-(4-methyl-1H-pyrazol-1-yl)ethan-1-one] gave an EC50 of 0.33 nM.
Work on `Cc1ccn(CCN2CC[C@]34CCN(CC5CC5)[C@H](Cc5ccc(O)cc53)[C@]4(O)CC2)c1` [Example 166, (5aS,6R,11bS)-14-(cyclopropylmethyl)-3-(2-(3-methyl-1H-pyrrol-1-yl)ethyl)-2,3,4,5,6,7-hexahydro-6,11b-(epiminoethano)naphtho[1,2-d]azepine-5a,10(1H)-diol] yielded an EC50 of 0.31 nM.
In the case of `CC(C)(C)c1cnn(CCN2CC[C@]34CCN(CC5CC5)[C@H](Cc5ccc(O)cc53)[C@]4(O)CC2)c1` [Example 149, (5aS,6R,11bS)-3-(2-(4-(tert-butyl)-1H-pyrazol-1-yl)ethyl)-14-(cyclopropylmethyl)-2,3,4,5,6,7-hexahydro-6,11b-(epiminoethano)naphtho[1,2-d]azepine-5a,10(1H)-diol], the EC50 is reported as 0.023 nM.
Compound `Cc1cnn(CCN2CC[C@]34CCN(CC5(F)CC5)[C@H](Cc5ccc(O)cc53)[C@]4(O)CC2)c1` [Example 226, (5aS,6R,11bS)-14-((1-fluorocyclopropyl)methyl)-3-(2-(4-methyl-1H-pyrazol-1-yl)ethyl)-2,3,4,5,6,7-hexahydro-6,11b-(epiminoethano)naphtho[1,2-d]azepine-5a,10(1H)-diol] has an EC50 of 0.017 nM.
`CC(C)c1cn(CC(=O)N2CC[C@]34CCN(CC5CC5)[C@H](Cc5ccc(O)cc53)[C@]4(O)CC2)nn1` [Example 165, 1-((5aS,6R,11bR)-14-(cyclopropylmethyl)-5a,10-dihydroxy-1,2,5,5a,6,7-hexahydro-6,11b-(epiminoethano)naphtho[1,2-d]azepin-3(4H)-yl)-2-(4-isopropyl-1H-1,2,3-triazol-1-yl)ethan-1-one] showed an EC50 of 0.28 nM.
In the case of `Oc1ccc2c(c1)[C@@]13CCN(CCN4CCCCC4)CC[C@@]1(O)[C@@H](C2)N(CC1CC1)CC3` [Example 130, (5aS,6R,11bS)-14-(cyclopropylmethyl)-3-(2-(piperidin-1-yl)ethyl)-2,3,4,5,6,7-hexahydro-6,11b-(epiminoethano)naphtho[1,2-d]azepine-5a,10(1H)-diol], the EC50 is reported as 0.36 nM.
In the case of `Cc1cc2c(cc1O)[C@@]13CCN(C(=O)Cc4n[nH]c5ccccc45)CC[C@@]1(O)[C@@H](C2)N(CC1CC1)CC3` [Example 357, 1-((5aS,6R,11bR)-14-(cyclopropylmethyl)-5a,10-dihydroxy-9-methyl-1,2,5,5a,6,7-hexahydro-6,11b-(epiminoethano)naphtho[1,2-d]azepin-3(4H)-yl)-2-(1H-indazol-3-yl)ethan-1-one], the EC50 is reported as 0.062 nM.
Work on `Cc1cnn([C@H]2CC[C@@H](N3CC[C@]45CCN(CC6CC6)[C@H](Cc6ccc(O)cc64)[C@]5(O)CC3)C2)c1` [Example 236, (5aS,6R,11bS)-14-(cyclopropylmethyl)-3-((1R,3S)-3-(4-methyl-1H-pyrazol-1-yl)cyclopentyl)-2,3,4,5,6,7-hexahydro-6,11b-(epiminoethano)naphtho[1,2-d]azepine-5a,10(1H)-diol] yielded an EC50 of 0.012 nM.
`Cc1cc(CC(=O)N2CC[C@]34CCN(CC5CC5)[C@H](Cc5cc(C)c(O)cc53)[C@]4(O)CC2)ns1` [Example 323, 1-((5aS,6R,11bR)-14-(cyclopropylmethyl)-5a,10-dihydroxy-9-methyl-1,2,5,5a,6,7-hexahydro-6,11b-(epiminoethano)naphtho[1,2-d]azepin-3(4H)-yl)-2-(5-methylisothiazol-3-yl)ethan-1-one] gave an EC50 of 0.18 nM.
In the case of `Cc1cnn(CCC(=O)N2CC[C@]34CCN(CC5CC5)[C@H](Cc5ccc(O)cc53)[C@]4(O)CC2)c1` [Example 220, 1-((5aS,6R,11bR)-14-(cyclopropylmethyl)-5a,10-dihydroxy-1,2,5,5a,6,7-hexahydro-6,11b-(epiminoethano)naphtho[1,2-d]azepin-3(4H)-yl)-3-(4-methyl-1H-pyrazol-1-yl)propan-1-one], the EC50 is reported as 0.26 nM.

Source: US20230087342A1, “AZEPANE DERIVATIVE” (Nippon Chemiphar Co., Ltd., priority 2019, published 2023)
